Results reported in US12428433B2, “Fluorine-containing heterocyclic derivatives with macrocyclic structure and use thereof” (ScinnoHub Pharmaceutical Co., Ltd, priority 2019, dated 2025).
Read-outs that look alike come from different tables or passages of the source.

Assays:
[1] = Stability test in liver microsomes, human; format: in vitro ADME; conditions: for half-life at 1 μM: 0.5 mg/mL
Protocol: (§1) A stability of the compound of the present application in liver microsomes of human, rat and mouse was measured.
(§2) 3.1 A buffer and a liver microsome were prepared into an incubation solution according to the following table:
(§3) 3.2 The following two experiments were carried out respectively: a) incubation system added with coenzyme factor NADPH: 25 μL of NADPH (10 mM) was added into an incubation solution (mainly comprising a liver microsome and a phosphate buffer), so that final concentrations of the liver microsome and the NADPH were 0.5 mg/mL and […] respectively; and b) incubation system without coenzyme factor NADPH: 25 μL of phosphate buffer (100 mM) was added into the incubation solution, so that the final concentration of the liver microsome was 0.5 mg/mL. The incubation systems above were preheated at 37° C. for 10 minutes respectively.
(§4) 3.3 2.5 μL of positive control compound or a tested compound solution (100 μM) was added into the incubation systems described in “step 3.2” above respectively for reaction, and the positive control compound was verapamil (purchased from Sigma), so that a final concentration of the tested compound of the present application or the positive control compound was 1 μM. The incubation solution added with the compound was incubated in water at 37° C. in batches.
(§5) 3.4 30 μL of aliquot was taken from a reaction solution after 0.5 minute, 5 minutes, 15 minutes, 30 minutes and 45 minutes respectively, and the reaction was terminated by adding 5 times volume of cold acetonitrile containing 200 nM caffeine and 100 nM tolbutamide. The aliquot was centrifuged at a gravity acceleration of 3,220 g for 40 minutes, and 100 μL of supernatant was mixed with 100 μL of ultrapure water, and then used for LC-MS/MS analysis.
(§6) A peak area was determined by an extracted ion chromatogram. A slope value k was determined by linear regression of a remaining percentage of a parent drug relative to […] an incubation time curve.
(§7) In-vitro half-life periods (t1/2) were respectively calculated and determined according to the slope value, and an average value of the in-vitro half-life periods was converted into an in-vitro intrinsic clearance rate (CLint, represented by μL/min/mg protein).

Ba/F3 EVT6-NTRK3-G623R = experiment: In-vitro cell viability (CTG), NTRK mutant cells; format: cell-based; conditions: Mus musculus, read-out: Ba/F3 EVT6-NTRK3-G623R IC50
Protocol: (§8) Hefei Precedo Biomedical Technology Co., Ltd. was commissioned to complete the testing example, and NTRK mutant cells used were constructed by this company.
(§9) Inhibitory effects of the compound of the present application on growth of three NTRK mutant cells (Ba/F3 LMNA-NTRK1-G667C, Ba/F3 EVT6-NTRK3-G623R and Ba/F3 LMNA-NTRK1-G595R) were measured.
(§10) Cells in logarithmic growth phase were collected and counted by a blood platelet counter, a cell concentration was adjusted to 3 to 6×10^4 cell/mL, 90 μL of cell suspension was added into a 96-well plate, and cells in the 96-well plate were cultured at 37° C. under 5% CO2 and 95% humidity overnight.
(§11) The to-be-tested compound was prepared into a 10 times drug solution in a medium containing 1% DMSO, with […] and the drug solution was diluted by 3 times in sequence to obtain drug solutions with 9 concentrations in total. […] 10 μL of prepared drug solution was added into each well of the 96-well plate in which the cells were inoculated. Then, 90 μL of medium containing 1% DMSO was added to obtain a drug solution with a highest concentration of 1 μM, and the drug solution was diluted by 3 times in sequence to obtain drug solutions with 9 concentrations in total. A final concentration of DMSO in each well was 0.1%, and three multiple wells were provided for the drug of each concentration. The cells in the 96-well plate in which the drug has been added were cultured at 37° C. under 5% CO2 and 95% humidity for 72 hours, and then subjected to CTG analysis.
(§12) An equal volume of CTG solution was added into each well, the 96-well plate was placed at room temperature for 20 minutes to stabilize a luminescence signal, and a luminescence value was read.
(§13) Data was analyzed by GraphPad Prism 7.0 software, and fitted by nonlinear S-curve regression to obtain a dose-effect curve, from which an IC50 value was calculated. Cell survival rate (%)=(Lum to-be-tested drug−Lum medium control)/(Lum cell control−Lum medium control)×100%.

Ba/F3 LMNA-NTRK1-G595R = experiment: In-vitro cell viability (CTG), NTRK mutant cells; format: cell-based; conditions: Mus musculus, read-out: Ba/F3 LMNA-NTRK1-G595R IC50
Protocol: as §8, §9, §10, §11, §12, §13

Ba/F3 LMNA-NTRK1-G667C = experiment: In-vitro cell viability (CTG), NTRK mutant cells; format: cell-based; conditions: Mus musculus, read-out: Ba/F3 LMNA-NTRK1-G667C IC50
Protocol: as §8, §9, §10, §11, §12, §13

[2] = Stability test in liver microsomes, mouse; format: in vitro ADME; conditions: for half-life at 1 μM: 0.5 mg/mL
Protocol: as §1, §2, §3, §4, §5, §6, §7

TRKa = TRKa (Homo sapiens (Human), UniProt P04629); experiment: Kinase inhibitory activity (Caliper mobility shift), TRKa; format: biochemical
Protocol: (§14) […] (Shanghai) Co., Ltd. was commissioned to complete the testing example. […] 3.1 A tested compound was accurately weighed and dissolved in 100% DMSO to prepare into a 10 mM solution. […] 3.2.3 A kinase solution of 2.5 times final concentration was prepared with 1×kinase buffer. […] 3.2.5 The reaction plate was shaken and mixed evenly, and then incubated at room temperature for 10 minutes. 3.2.6 Mixed solutions of ATP and kinase substrate 22 of 5 times and 3 times final concentrations were prepared with 1×kinase buffer. 3.2.7 15 μL of mixed solution of ATP and substrate of 5 times or 3 times final concentration was added. 3.2.8 The 384-well plate was centrifuged at 1,000 rpm for 30 seconds, shaken and mixed evenly, and then incubated at room temperature for corresponding time. 3.2.9 The kinase reaction was terminated. 3.2.10 A conversion rate was read by the microplate reader Caliper EZ Reader. Calculation Formula Inhibition rate %=(conversion rate % maximum-conversion rate % sample)/(conversion rate % maximum-conversion rate % minimum)×100 wherein the conversion rate % sample was: a reading number of a conversion rate of a sample; the conversion rate % minimum was: an average value of the negative control well, which represented a reading number of a conversion rate without an enzyme activity well; and the conversion rate % maximum was: an average value of a ratio of the positive control well, which represented a reading number of a conversion rate without a compound inhibition well.

TRKC(G623R) = TRKC(G623R) (Homo sapiens (Human), UniProt Q16288, G623R); experiment: Kinase inhibitory activity (Caliper mobility shift), TRKC(G623R); format: biochemical
Protocol: Sundia Meditech (Shanghai) Co., Ltd. was commissioned to complete the testing example.
3.1 A tested compound was accurately weighed and dissolved in 100% DMSO to prepare into a 10 mM solution.
250 nL of the compound of 100 times final concentration was transferred to a reaction plate OptiPlate-384F by a dispenser Echo 550.
3.2.3 A kinase solution of 2.5 times final concentration was prepared with 1×kinase buffer.
3.2.4 10 μL of kinase solution of 2.5 times final concentration was added into a compound well and a positive control well respectively; and 10 μL of 1×kinase buffer was added into a negative control well.
3.2.5 The reaction plate was shaken and mixed evenly, and then incubated at room temperature for 10 minutes.
3.2.6 Mixed solutions of ATP and kinase substrate 22 of 5 times and 3 times final concentrations were prepared with 1×kinase buffer.
3.2.7 15 μL of mixed solution of ATP and substrate of 5 times or 3 times final concentration was added.
3.2.8 The 384-well plate was centrifuged at 1,000 rpm for 30 seconds, shaken and mixed evenly, and then incubated at room temperature for corresponding time.
3.2.9 The kinase reaction was terminated.
3.2.10 A conversion rate was read by the microplate reader Caliper EZ Reader.
Calculation Formula Inhibition rate %=(conversion rate % maximum−conversion rate % sample)/(conversion rate % maximum−conversion rate % minimum)×100
wherein the conversion rate % sample was: a reading number of a conversion rate of a sample; the conversion rate % minimum was: an average value of the negative control well, which represented a reading number of a conversion rate without an enzyme activity well; and the conversion rate % maximum was: an average value of a ratio of the positive control well, which represented a reading number of a conversion rate without a compound inhibition well.
Fitting of dose-effect curve: a log value of concentration was used as an X axis, a percentage inhibition rate was used as a Y axis, and the dose-effect curve was fitted by a log (inhibitor) vs. response-variable slope of the analysis software GraphPad Prism 5 (four-parameter model fitting), so as to obtain an IC50 value of each compound on enzyme activity.

TRKA(G595R) = TRKA(G595R) (Homo sapiens (Human), UniProt P04629, G595R); experiment: Kinase inhibitory activity (Caliper mobility shift), TRKA(G595R); format: biochemical
Protocol: as §14

[3] = Stability test in liver microsomes, rat; format: in vitro ADME; conditions: for half-life at 1 μM: 0.5 mg/mL
Protocol: as §1, §2, §3, §4, §5, §6, §7

Chain of TRKA(G595R) (P04629 33-796 G595R): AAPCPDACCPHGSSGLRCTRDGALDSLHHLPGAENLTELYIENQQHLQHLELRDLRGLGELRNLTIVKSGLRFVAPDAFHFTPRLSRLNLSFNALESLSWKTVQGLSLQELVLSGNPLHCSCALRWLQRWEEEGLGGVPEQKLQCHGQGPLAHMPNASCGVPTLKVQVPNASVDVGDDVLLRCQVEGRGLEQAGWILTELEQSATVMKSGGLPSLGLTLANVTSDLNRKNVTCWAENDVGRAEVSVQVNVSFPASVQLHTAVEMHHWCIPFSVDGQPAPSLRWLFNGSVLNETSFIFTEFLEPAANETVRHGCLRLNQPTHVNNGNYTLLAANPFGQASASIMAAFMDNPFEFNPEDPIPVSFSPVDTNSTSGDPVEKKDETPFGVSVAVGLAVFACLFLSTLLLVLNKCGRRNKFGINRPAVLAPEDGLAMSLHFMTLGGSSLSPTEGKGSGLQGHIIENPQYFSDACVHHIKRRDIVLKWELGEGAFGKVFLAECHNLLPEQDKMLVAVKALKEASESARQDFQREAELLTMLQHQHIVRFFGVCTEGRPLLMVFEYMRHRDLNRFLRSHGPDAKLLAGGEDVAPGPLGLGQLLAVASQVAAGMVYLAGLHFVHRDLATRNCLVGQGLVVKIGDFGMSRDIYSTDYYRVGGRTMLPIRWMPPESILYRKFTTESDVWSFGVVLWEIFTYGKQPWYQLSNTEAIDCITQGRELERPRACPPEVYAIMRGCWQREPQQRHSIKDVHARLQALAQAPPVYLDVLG
Chain of TRKa (P04629 33-796): as the sequence (P04629 33-796 G595R) above, with R563G counted along it
Chain of TRKC(G623R) (Q16288 32-839 G623R): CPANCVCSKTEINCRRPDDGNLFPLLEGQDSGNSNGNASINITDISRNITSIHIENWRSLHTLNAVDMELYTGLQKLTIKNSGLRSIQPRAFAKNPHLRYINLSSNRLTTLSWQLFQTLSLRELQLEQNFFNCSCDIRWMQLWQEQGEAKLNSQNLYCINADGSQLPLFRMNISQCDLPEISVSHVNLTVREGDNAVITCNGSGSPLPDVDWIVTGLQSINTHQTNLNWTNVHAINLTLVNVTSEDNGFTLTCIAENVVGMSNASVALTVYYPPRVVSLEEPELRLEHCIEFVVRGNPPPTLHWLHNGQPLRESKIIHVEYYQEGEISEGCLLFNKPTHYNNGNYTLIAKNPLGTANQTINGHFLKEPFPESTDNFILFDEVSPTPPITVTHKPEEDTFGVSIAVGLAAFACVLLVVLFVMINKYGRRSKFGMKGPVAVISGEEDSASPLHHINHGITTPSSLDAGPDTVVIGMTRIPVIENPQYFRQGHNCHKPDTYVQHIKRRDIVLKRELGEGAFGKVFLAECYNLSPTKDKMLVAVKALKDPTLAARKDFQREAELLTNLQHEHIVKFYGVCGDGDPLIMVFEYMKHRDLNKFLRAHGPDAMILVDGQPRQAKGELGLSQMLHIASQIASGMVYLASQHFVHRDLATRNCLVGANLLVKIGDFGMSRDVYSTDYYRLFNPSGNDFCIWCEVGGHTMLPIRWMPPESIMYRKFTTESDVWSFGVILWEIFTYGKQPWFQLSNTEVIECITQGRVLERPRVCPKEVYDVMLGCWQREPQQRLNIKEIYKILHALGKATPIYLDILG

IC50 (TRKa) | IC50 (TRKC(G623R)) | IC50 (TRKA(G595R)) | IC50 (Ba/F3 EVT6-NTRK3-G623R; BaF3, 72 hours, CTG) | IC50 (Ba/F3 LMNA-NTRK1-G595R; BaF3, 72 hours, CTG) | IC50 (Ba/F3 LMNA-NTRK1-G667C; BaF3, 72 hours, CTG) | CLint [1] | SMILES | microsomal CLint at 1 μM [1] | half-life at 1 μM [1] | % Remaining(45 min) [1] | IC50 (Ba/F3 EVT6-NTRK3-G623R; BaF3, 72 h) | IC50 (Ba/F3 LMNA-NTRK1-G595R; BaF3, 72 h) | IC50 (Ba/F3 LMNA-NTRK1-G667C; BaF3, 72 h) | microsomal CLint at 1 μM [2] | half-life at 1 μM [2] | % Remaining(45 min) [2] | microsomal CLint at 1 μM [3] | half-life at 1 μM [3] | % Remaining(45 min) [3]
320 nM | > 1000 nM | > 1000 nM | > 1000 nM | > 1000 nM | > 1000 nM | – | C[C@H]1Nc2ccn3ncc(c3n2)C(=O)N[C@H]2C[C@H](C2)Oc2ncccc21 [Example 4, (3^1S,3^3S,6^3E,6^4E,8R)-8-methyl-2-oxo-4,7-diaza-6(3,5)-pyrazolo[1,5-a]pyrimidine-1(2,3)-pyridine-3(1,3)-cyclobutylcyclooctane-5-one] | – | – | – | – | – | – | – | – | – | – | – | –
127 nM | > 1000 nM | 561 nM | > 1000 nM | > 1000 nM | > 1000 nM | – | C[C@H]1Nc2nc3c(cnn3cc2F)C(=O)NC2CC(C2)Oc2ncccc21 [Example 5, (3^1S,3^3S,6^3E,6^4E,8R)-6^6-fluoro-8-methyl-2-oxo-4,7-diaza-6(3,5)-pyrazolo[1,5-a]pyrimidine-1(2,3)-pyridine-3(1,3)-cyclobutylcyclooctane-5-one] | – | – | – | – | – | – | – | – | – | – | – | –
0.52 nM | 8.2 nM | 2.9 nM | 536 nM | 116 nM | 40 nM | – | C[C@H]1Nc2ccn3nc(F)c(c3n2)C(=O)N[C@H]2C[C@H](C2)Oc2ncc(F)cc21 [Example 6, (3^1S,3^3S,6^3Z,6^4E,8R)-1^5,6^2-difluoro-8-methyl-2-oxo-4,7-diaza-6(3,5)-pyrazolo[1,5-a]pyrimidine-1(2,3)-pyridine-3(1,3)-cyclobutylcyclooctane-5-one] | – | – | – | – | – | – | – | – | – | – | – | –
– | – | – | 145 nM | 12 nM | 6.3 nM | 82.65 µL/min/mg | C[C@@H]1CCc2ncc(F)cc2[C@H]2CCCN2c2ccn3ncc(c3n2)C(=O)N1 [LOXO-195, reference compound] | – | 16.8 min | 16.23% | – | – | – | 186 µL/min/mg | 7.45 min | 1.98% | 152 µL/min/mg | 9.12 min | 4.88%

SMILES | IC50 (TRKa) | IC50 (TRKC(G623R)) | IC50 (TRKA(G595R)) | IC50 (Ba/F3 EVT6-NTRK3-G623R; BaF3, 72 hours, CTG) | IC50 (Ba/F3 LMNA-NTRK1-G595R; BaF3, 72 hours, CTG) | IC50 (Ba/F3 LMNA-NTRK1-G667C; BaF3, 72 hours, CTG) | CLint [1] | microsomal CLint at 1 μM [1] | half-life at 1 μM [1] | % Remaining(45 min) [1] | IC50 (Ba/F3 EVT6-NTRK3-G623R; BaF3, 72 h) | IC50 (Ba/F3 LMNA-NTRK1-G595R; BaF3, 72 h) | IC50 (Ba/F3 LMNA-NTRK1-G667C; BaF3, 72 h) | microsomal CLint at 1 μM [2] | half-life at 1 μM [2] | % Remaining(45 min) [2] | microsomal CLint at 1 μM [3] | half-life at 1 μM [3] | % Remaining(45 min) [3]
C[C@@H]1CCc2ncc(F)cc2[C@H]2CCCN2c2nc3c(cnn3cc2F)C(=O)N1 [Example 1] | 0.62 nM | 3.7 nM | 2.5 nM | – | – | – | – | 170 µL/min/mg | 8.17 min | 4.24% | 190 nM | 13 nM | 5.9 nM | 82.7 µL/min/mg | 16.8 min | 16.15% | 189 µL/min/mg | 7.35 min | 3.30%
